In patent US20200405739A1, “MTOR INHIBITOR, PHARMACEUTICAL COMPOSITION AND USE THEREOF” (SHENYANG FUYANG PHARMACEUTICAL TECHNOLOGY CO., LTD., priority 2018, published 2020):

What was measured:
[1] = tested on: mouse liver cancer cells H22; test: in vivo tumor growth inhibition
[2] = tested on: non-small cell lung cancer cells A549; test: in vivo tumor growth inhibition
[3] = tested on: PI3K/Akt/mTOR signaling pathway protein; test: Western blot of PI3K/Akt/mTOR pathway proteins in A549 cells (Test Example 2); assay type: cell-based, human; conditions: 24 h; for activation of PI3K protein, 4EBP1 protein, mTOR protein / expression of Akt protein and S6K1 protein and of their activated proteins: Western blot
Protocol: A549 cells were purchased from American Type Culture Collection (ATCC, Manassas, Va., USA). The cells were cultured in a DMEM medium containing 10% fetal bovine serum, 2% glutamine and penicillin (100 U/ml) in an incubator at 37° C. with 5% CO2. The cells used in the experiment were all cells in logarithmic phase.
A549 was an adherent cell, cells in logarithmic growth phase was selected as the experimental group.
1) 60-100 μl of lysate was added to each tube of cells, and was subjected to ice bath in a refrigerator at 4° C. for 1 h; the solution was centrifuged for 10-15 min at 12,000 r/min, the supernatant was suck out to a 0.5 ml EP tube; after the quantitative protein was measured with Bio-Rad, 5× loading buffers were added, and the solution was subjected to boiling water bath for 3-5 min and then was cryopreserved at −80° C.
2) 15%, 12% or 10% acrylamide separation gel was prepared according to Tab. 2-1, and was then mixed with various ingredients successively; once TEMED and AP were added, the mixture was quickly rotated and poured between the two glass plates of the electrophoresis tank, leaving the space required for pouring the stacking gel.
The separation gel was covered with a layer of isopropyl alcohol, and the gel was placed vertically at room temperature for about 30 min.
3) After the separation gel was completely polymerized, the isopropyl alcohol was removed, and the gel was washed with deionized water for 10 times; water was absorbed with filter paper, a stacking gel was prepared according to Tab.2-2, and a clean sample comb was immediately inserted after adding the stacking gel into electrophoresis tank.
4) After the stacking gel was completely polymerized, the electrophoresis instrument was filled with 1×electrophoretic buffer solution, samples were added into sample holes according to a predetermined sequence to start electrophoresis, the voltage was 50-60V when the samples were located at the stacking gel, and the voltage was adjusted to 100-140V when the samples swam to the separation gel.
1) After the SDS polyacrylamide gel electrophoresis was completed, the gel was placed in the transfer buffer and soaked for 30 min. 8 pieces of Whatman 3 MM filter paper and 1 piece of nitrocellulose membrane were cut out, which were consistent with the size of the gel. The nitrocellulose membrane was immersed in methanol for 1 min, and the nitrocellulose membrane was immersed in deionized water to remove air bubbles.
2) The gel was stacked into a “sandwich” shape and inserted into the transfer cell. The gel was connected to the cathode on one side, 100 mA for 3 h.
3) The transferred nitrocellulose membrane entered the Ponceau S staining solution for 5-10 min, and was shaken gently during the period. After the protein band appeared, it was rinsed with deionized water several times, and the position of the standard protein molecular weight was marked with waterproof ink.
4) The membrane was placed in a petri dish with a blocking solution and blocked for 2 h.
5) The blocking solution containing a first antibody was added at 0.1 ml/cm^2 and stayed overnight at 4° C. (dilution multiples of various antibodies are as shown in Tab 0.2-2)
6) The first antibody was recovered, the membrane was rinsed with PBST 3 times for 10 min each time, and was then transferred to a solution containing 150 mM NaCl and 50 mM Tris-HCl (pH 7.5) and shaken for 10 min.
7) A phosphate-free and sodium azide-free blocking solution containing a second antibody was added at 0.1 ml/cm2, wherein the second antibody labeled with horseradish peroxidase was diluted 1,000 times.
8) It was rinsed with 150 mM NaCl and 50 mmol/L Tris-HCl (pH 7.5) solution for 3 times for 10 min each time. Color development was carried out in a dark room with an ECL kit, and pictures were scanned and saved. […]

[4] = human body; cited from earlier work

Row | Molecule | inhibition of tumor growth in vivo [1] | inhibition of tumor growth in vivo [2] | activation of PI3K protein, 4EBP1 protein, mTOR protein [3] | expression of Akt protein and S6K1 protein and of their activated proteins [3] | inhibitory effects on AKT, S6K1 and 4EBP1 compared with rapamycin ([3]; rapamycin 20 μg/ml as control drug) | absolute oral bioavailability [4]
1 | CO[C@@H]1[C@@H](O[C@@H]2O[C@H](C)[C@@H](O[C@H]3C[C@@](C)(O)[C@@H](OC(=O)CC(C)C)[C@H](C)O3)[C@H](N(C)C)[C@H]2O)[C@@H](CC=O)C[C@@H](C)[C@@H](O[C@H]2CC[C@H](N(C)C)[C@@H](C)O2)/C=C/C=C/C[C@@H](C)OC(=O)C[C@H]1O [isovalerylspiramycin I] | obvious inhibiting effects | obvious inhibiting effects | inhibit the protein activation of the PI3K/AKT/mTOR signaling pathway | inhibit expression of Akt protein and S6K1 protein and expression of their activated proteins | more excellent inhibitory effects on AKT, S6K1 and 4EBP1 | 
2 | spiramycin |  |  |  |  |  | 30-40%
3 | isovalerylspiramycin II |  |  | inhibit the activation of PI3K protein, 4EBP1 protein and mTOR protein | inhibit the expression of AKT protein and S6K1 protein and the expression of their activated proteins |  | 
4 | CCC(=O)O[C@@H]1CC(=O)O[C@H](C)C/C=C/C=C/[C@H](O[C@H]2CC[C@H](N(C)C)[C@@H](C)O2)[C@H](C)C[C@H](CC=O)[C@H](O[C@@H]2O[C@H](C)[C@@H](O[C@H]3C[C@@](C)(O)[C@@H](OC(=O)CC(C)C)[C@H](C)O3)[C@H](N(C)C)[C@H]2O)[C@H]1OC [isovalerylspiramycin III] |  |  | inhibit the activation of PI3K protein, 4EBP1 protein and mTOR protein | inhibit the expression of AKT protein and S6K1 protein and the expression of their activated proteins |  | 
